From US20140242093A1, “METHODS AND COMPOSITIONS FOR MODULATING THE INNATE IMMUNE RESPONSE AND/OR MYOGENESIS IN A MAMMALIAN SUBJECT” (FRED HUTCHINSON CANCER RESEARCH CENTER, priority 2011, published 2014)

Tested on: control human primary myoblasts
Assay: Expression microarray of primary myoblasts transduced with lentivirus carrying DUX4-fl, DUX4-s or GFP
Procedure: Primary human myoblasts were collected and cultured as previously described (Snider et al., 2010). Primary myoblasts were maintained at or below 70% confluency for proliferation. For differentiation, cells were allowed to reach 95-100% confluency in growth medium. Once confluency was reached, the cells were changed to differentiation medium (F10 media supplemented with 1% horse serum, 10 μg/mL insulin, and 10 μg/mL transferrin, penicillin/streptomycin) and maintained for 4 days. Human RD cells were grown in DMEM in 10% bovine calf serum (Hyclone) and penicillin/streptomycin. The primary myoblasts were transduced with lentivirus carrying DUX-fl, DUX4- or GFP (MOI=15).
Expression microarrays were performed on the transduced cells at 24 hours after transduction as follows. […] Samples were analyzed by Illumina Human Whole Genome microarrays. Probe intensities were corrected, normalized, and summarized by the Lumi package of Bioconductor (Du et al., 2008). Differentially expressed genes were identified by the LIMMA package of Bioconductor (Wettenhall and Smyth, 2004). Gene set enrichment analysis (GSEA) was performed using the Bioconductor GOstats package (Falcon and Gentleman, 2007).

DUX4-fl: full-length DUX4 protein (SEQ ID NO:110), expressed from lentiviral or pCS2 vectors or in vitro translated
NFKBIA expression fc (Refseq NM_020529.1, cultured human skeletal muscle): −3.004
fc of RCN3 (expression array) (Refseq NM_020650.2): −1.062
PELI1 expression fc (Refseq NM_020651.2): 2.886
fc of FAM62B (expression array) (Refseq NM_020728.1): −0.7938
HECW2 fc (Refseq NM_020760.1): −1.167
ZNF319 fc (Refseq NM_020807.1): −1.119
OSBPL8 expression fc (Refseq NM_020841.4): 1.95
USP29 expression fc (Refseq NM_020903.2): 2.597
fc of RNF213 (expression array) (Refseq NM_020914.3): −1.024
fc of FAM160B1 (expression array) (Refseq NM_020940.3): −1.051
fc of IGDCC4 (expression array) (Refseq NM_020962.1): −1.054
RFPL1 expression fc (Refseq NM_021026.2): 6.264
IFITM3 expression fc (Refseq NM_021034.2, cultured human skeletal muscle): −1.949
NEFH expression fc (Refseq NM_021076.2): 1.936
fc of SLC8A1 (expression array) (Refseq NM_021097.2): −0.4596
PSAT1 fc (Refseq NM_021154.3): −1.076
RAB40C fc (Refseq NM_021168.2): −1.168
fc of SLC30A1 (expression array) (Refseq NM_021194.2): −0.3462
CTDSP1 fc (Refseq NM_021198.1): −1.122
ARHGAP22 fc (Refseq NM_021226.2): −1.084
fc of NTN4 (expression array) (Refseq NM_021229.3): −1.022
PELI2 expression fc (Refseq NM_021255.2): 2.782
PLEKHA2 fc (Refseq NM_021623.1): −1.077
AVPI1 expression fc (Refseq NM_021732.1): 2.022
fc of FAM3A (expression array) (Refseq NM_021806.1): −1.022
APOBEC3G expression fc (Refseq NM_021822.1, cultured human skeletal muscle): −2.012
fc of C14orf93 (expression array) (Refseq NM_021944.1): −1.063
HSPA2 expression fc (Refseq NM_021979.3): 3.67
CXCL16 fc (Refseq NM_022059.1): −1.09
NOD2 fc (Refseq NM_022162.1): −1.135
IFIH1 expression fc (Refseq NM_022168.2, cultured human skeletal muscle): −3.705
HS1BP3 fc (Refseq NM_022460.3): −1.078
C14orf173 fc (Refseq NM_022489.2): −1.167
FEZ1 fc (Refseq NM_022549.2): −1.073
HIPK2 fc (Refseq NM_022740.2): −1.173
fc of MOSC1 (expression array) (Refseq NM_022746.2): −1.034
PARP12 expression fc (Refseq NM_022750.2, cultured human skeletal muscle): −3.165
CRTC3 fc (Refseq NM_022769.3): −1.138
FAM129B fc (Refseq NM_022833.2): −1.126
IFI6 expression fc (Refseq NM_022872.2, cultured human skeletal muscle): −4.24
FGFR3 expression fc (Refseq NM_022965.1): 3.112
PRAMEF1 expression fc (Refseq NM_023013.1): 8.072
PRAMEF2 expression fc (Refseq NM_023014.1): 6.439
C8orf33 expression fc (Refseq NM_023080.1): 2.251
GRAMD3 fc (Refseq NM_023927.1): −1.115
NEUROG2 expression fc (Refseq NM_024019.2): 3.857
NUP37 fc (Refseq NM_024057.2): −1.075
PRRG4 expression fc (Refseq NM_024081.4): 2.369
TRIM48 expression fc (Refseq NM_024114.2): 7.88
DHX58 expression fc (Refseq NM_024119.2, cultured human skeletal muscle): −2.836
PRKAG2 fc (Refseq NM_024429.1): −1.099
fc of FAM65A (expression array) (Refseq NM_024519.2): −1.053
fc of ZC3HAV1 (expression array) (Refseq NM_024625.3): −0.8233
YRDC expression fc (Refseq NM_024640.3): 2.601
NPEPL1 fc (Refseq NM_024663.3): −1.113
SNIP1 expression fc (Refseq NM_024700.2): 2.104
fc of FAM57A (expression array) (Refseq NM_024792.1): −1.045
C13orf34 expression fc (Refseq NM_024808.2): 2.492
fc of NUDT18 (expression array) (Refseq NM_024815.3): −1.034
fc of ZNF672 (expression array) (Refseq NM_024836.1): −1.034
C14orf159 expression fc (Refseq NM_024952.5, cultured human skeletal muscle): −2.07
NRSN2 fc (Refseq NM_024958.1): −1.091
SLC24A6 fc (Refseq NM_024959.2): −1.099
CSRNP3 expression fc (Refseq NM_024969.2): 2.496
fc of ULBP1 (expression array) (Refseq NM_025218.2): −1.025
C6orf148 expression fc (Refseq NM_030568.2): 6.759
KLHL15 expression fc (Refseq NM_030624.1): 3.373
fc of ZBP1 (expression array) (Refseq NM_030776.1): −0.3281
SLC2A10 fc (Refseq NM_030777.3): −1.119
SYNC1 fc (Refseq NM_030786.1): −1.127
PDRG1 expression fc (Refseq NM_030815.2): 1.783
UNC93B1 expression fc (Refseq NM_030930.2, cultured human skeletal muscle): −1.961
PPP1R14C expression fc (Refseq NM_030949.2): 3.049
TRIM56 fc (Refseq NM_030961.1): −1.14
fc of RNF146 (expression array) (Refseq NM_030963.2): −1.02
ADPGK expression fc (Refseq NM_031284.3): 2.233
C11orf68 fc (Refseq NM_031450.2): −1.142
FAM107B expression fc (Refseq NM_031453.2): 2.529
PARP9 expression fc (Refseq NM_031458.1, cultured human skeletal muscle): −2.098
IFI27L2 fc (Refseq NM_032036.2): −1.137
SFRS2B expression fc (Refseq NM_032102.2): 4.215
